# “Also recorded” adds a separate entry of the source.
# Tests used:
# ERα LBD = biological target: T1, ERα LBD (Homo sapiens, UniProt P03372); assay: MARCoNI ERα-coregulator interaction peptide microarray; format: biochemical; conditions: 10 μM compound, 7 nM GST-tagged ERα LBD, vs apo
# T1 construct: using 7 nM GST-tagged ERα LBD (Invitrogen); purchased Invitrogen
# T1 sequence (P03372 311-547 limits assumed): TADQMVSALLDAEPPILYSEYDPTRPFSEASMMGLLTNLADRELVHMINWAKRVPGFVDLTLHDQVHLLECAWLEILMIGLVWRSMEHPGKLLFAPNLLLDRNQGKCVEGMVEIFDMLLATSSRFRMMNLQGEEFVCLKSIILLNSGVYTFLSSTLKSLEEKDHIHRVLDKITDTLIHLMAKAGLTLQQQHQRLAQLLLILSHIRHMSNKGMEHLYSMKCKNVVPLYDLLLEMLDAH
# Procedure: The modulation of ERα-coregulator interaction by compound was analyzed using MARCoNI (Micro Array Assay for Real-time Coregulator Nuclear receptor Interaction) as described previously using 7 nM GST-tagged ERα LBD (Invitrogen).
# Each condition is measured using 3 technical replicates (arrays). After incubation, unbound receptor is removed by washing, and a tiff image of each array is acquired using a CCD camera and receptor binding to each peptide on the array is quantified using dedicated software. For each condition, the three technical replicates are used to calculate mean and S.E.M. ERα binding as well as compound-induced log-fold modulation vs. control for each individual motif. Significance of the modulation is assessed using Student's t-Test.
# mutant ER (Y537S ESR1) [1] = biological target: T2, mutant ER (Y537S ESR1) (Homo sapiens, UniProt P03372, Y537S); assay: ER downregulation in T47D/Y537S cells (Wes Simple Western); format: cell-based; conditions: four hours treatment, ERα normalized to actin; read-out: IC50, ER downregulation in T47D/Y537S cells
# T2 construct: added to the C terminus of full-length wild-type and mutant (Y537S) ESR1 by PCR amplification; expressed in transfected cells; host or cells: T47D, lentiviral transduction with pFLRu-FH and puromycin selection
# T2 sequence (P03372 1-595 Y537S): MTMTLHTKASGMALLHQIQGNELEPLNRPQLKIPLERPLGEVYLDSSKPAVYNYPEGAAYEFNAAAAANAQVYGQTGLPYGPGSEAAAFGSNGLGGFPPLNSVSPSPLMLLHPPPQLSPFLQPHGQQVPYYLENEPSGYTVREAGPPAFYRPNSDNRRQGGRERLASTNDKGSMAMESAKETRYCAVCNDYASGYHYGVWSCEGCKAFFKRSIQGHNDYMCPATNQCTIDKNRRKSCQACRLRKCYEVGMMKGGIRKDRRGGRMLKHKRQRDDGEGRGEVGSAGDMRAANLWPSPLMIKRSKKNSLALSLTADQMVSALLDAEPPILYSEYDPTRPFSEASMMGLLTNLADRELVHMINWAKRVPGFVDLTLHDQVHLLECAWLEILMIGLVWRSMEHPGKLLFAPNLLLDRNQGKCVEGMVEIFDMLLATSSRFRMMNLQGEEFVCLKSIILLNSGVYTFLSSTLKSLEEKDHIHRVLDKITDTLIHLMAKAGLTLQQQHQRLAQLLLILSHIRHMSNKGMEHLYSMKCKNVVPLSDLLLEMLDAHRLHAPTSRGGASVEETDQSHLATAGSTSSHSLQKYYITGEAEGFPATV
# From the text: (§1) IC50 values were obtained from dose-response curves for all treatments.
# mutant ER (Y537S ESR1) [2] = assay: as above; format: cell-based; conditions: T47D/Y537S
# From the text: as §1
# [3] = tested on: TM00386 PDX ER+/PR+/HER2- invasive ductal carcinoma; assay: Efficacy in patient derived xenograft (PDX) tumor model; format: in vivo, NOD scid gamma (NSG) mice
# [4] = Tolerability in tumor bearing animals; conditions: all tumor bearing animals, different oral doses
# Procedure: Four to six weeks old female ovariectomized Nu/Nu mice were purchased from Charles River Laboratories (Wilmington, MA). MCF-7 cells were cultured and harvested in the exponential growth phase using a PBS/EDTA solution. The animals were injected bilaterally in the mammary fat pad (MFP) with 5×10^6 viable cells suspended in 50 μL sterile PBS mixed with 100 μL Matrigel (reduced factor; BD Biosciences, Bed- ford, MA). 17b-Estradiol pellets (0.72 mg, 60 day release; Innovative Research of America, Sarasota, FL) were implanted subcutaneously in the lateral area of the neck using a precision trochar (10 gages) at the time of cell injection. Tumors were allowed to form and at day 15 post cell injection […]. […] Tumor sizes were monitored and recorded every other day for three weeks of treatment duration.
# In a patient-derived xenograft (PDX) mouse model in which the primary tumor donated by a postmenopausal patient was engrafted in NOD scid gamma (NSG™) mice (TM00386 PDX model, Jackson Lab). […] Tumor sizes were monitored and recorded every other day for three weeks of treatment duration.
compound,measurement,setting,value
C[C@]12CC[C@@H]3c4ccc(B(O)O)cc4C[C@@H](CCCCCCCCC[S+]([O-])CCCC(F)(F)C(F)(F)F)[C@H]3[C@@H]1CC[C@@H]2O (some centres unmarked) [ZB716],modulation of ERα interaction with coactivator motifs (NCOA family),ERα LBD,strongly reduced
same,DC50,mutant ER (Y537S ESR1) [1],24 nM
same,drug concentration for 50% downregulation of mutant ER relative to wild type,mutant ER (Y537S ESR1) [2],about 10 times
same,PDX tumor growth,[3]; ZB716 5 mg/kg PO daily,as effectively as fulvestrant treatment
same,PDX tumor growth inhibition,[3]; ZB716 20 mg/kg PO daily,greatest effect on tumor growth inhibition
same,PDX tumor growth,[3]; ZB716 at both doses (5 and 20 mg/kg PO daily),effective in blocking tumor growth; also recorded: regression of tumor comparable to the fulvestrant group
same,animal body weights,[4],no significant loss or increase of animal body weights
same,toxicities in the entire course of treatment,[4],no apparent toxicities were observed
